Results taken from patent US8895756B2, “Bendamustine pharmaceutical compositions” (priority 2005, dated 2014).

Legend:
[1] = Fisher esterification conditions: formation of t-butyl ester of bendamustine in TBA; type: physicochemical; settings: heated in 60° C. TBA with HCl for 20 hours
Protocol: Experiments were performed using traditional Fisher esterification reaction conditions required for the formation of t-butyl ester of bendamustine. Bendamustine was heated in 60° C. TBA with HCl for 20 hours.

[2] = HPLC stability of bendamustine in TBA 20% (v/v) with and without mannitol over 24 hours; type: physicochemical
Source text: FIGS. 3 and 4 show the amount of degradation of bendamustine as measured by HP1 and dimer formation quantified by HPLC (as described herein). HP1 and dimer formation increased as the amount of alcohol concentration decreased regardless of the alcohol. This increase in impurities occurred with an anticipated time dependence (see Tables 3-9).

With `Cl.Cn1c(CCCC(=O)O)nc2cc(N(CCCl)CCCl)ccc21` [bendamustine, 4-{5-[Bis(2-chloroethyl)amino]-1-methyl-2-benzimidazolyl}butyric acid] the “formation of t-butyl ester” value [1] was “No reaction was observed”, the “Purity (% Area)” value ([2]; TBA 20% (v/v) with Mannitol, 0 hours, reverse phase HPLC) was 99.59 % Area and the “Purity (% Area)” value ([2]; TBA 20% (v/v) with Mannitol, 24 hours @ 5° C., reverse phase HPLC) was 99.35 % Area. For the same molecule, the “Purity (% Area)” value ([2]; TBA 20% (v/v) without Mannitol, 0 hours, normal phase HPLC) was 100.0 % Area and the “Purity (% Area)” value ([2]; TBA 20% (v/v) without Mannitol, 24 hours @ 5° C., normal phase HPLC) was 98.80 % Area.
